Experimental data as given in patent publication US10023565B2, “N,N′ substituted piperidinamine compounds, and preparation method and usage thereof” (Institute of Pharmacology and Toxicology Academy of …, priority 2013, dated 2018).

Tests used:
HT-29 = assay: Extended test against tumor cell lines (ATPlite); type: cell-based; details: HT-29 (colorectal cancer), 72 hours
Outline: (§1)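 5000 cells/well, 24 h attach, 37 °C. Cpd 4, 1, 0.25, 0.063, 0.016 μM final, n=3, 72 h. ATPlite lum; % survival vs medium control RLU.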

MIA-PaCa-2 = assay: Extended test against tumor cell lines (ATPlite); type: cell-based; details: MIA-PaCa-2 (pancreatic cancer), 72 hours
Outline: as §1

BGC823 = assay: Extended test against tumor cell lines (ATPlite); type: cell-based; details: BGC823 (gastric cancer), 72 hours
Outline: as §1

AsPC-1 = assay: Extended test against tumor cell lines (ATPlite); type: cell-based; details: AsPC-1 (pancreatic cancer), 72 hours
Outline: as §1

N87 = assay: Extended test against tumor cell lines (ATPlite); type: cell-based; details: N87 (gastric cancer), 72 hours
Outline: as §1

A549 = assay: Extended test against tumor cell lines (ATPlite); type: cell-based; details: A549 (lung cancer), 72 hours
Outline: as §1

Hsp70 = target: T1, Hsp70 (Homo sapiens, UniProt P0DMV8); assay: Measurement of affinity between compounds and Hsp70 (SPR, BIACORE T100); type: binding
T1 construct: purchased Enzo Life Sciences ADI-ESP-550-D
Procedure: Instrument for measuring the affinity between Example compounds and Hsp70 is BIACORE T100 Biomolecular Interaction Analysis (GE, USA), and the positive control drug is VER-155008 that is well-recognized as Hsp70 inhibitor now, and, on the basis of the measured results, according to binding characteristics between the compounds and protein, the binding constant (equilibrium dissociation constant KD) between drugs and protein is calculated by selecting steady state model with the formula: Conc*Rmax/[conc+KD]+offset.
1. Instrument: BIACORE T100 Biomolecular Interaction Analysis (GE, USA)
2. Reagents: PBS Buffer (×10), P20, CM5 chip (GE, USA), Hsp70 (human, ADI-ESP-550-D), manufactured by Enzo Life Sciences.
30 mM mother liquor of the compound was formulated with DMSO, which was diluted to 2 mM application solution with DMSO before use. 5 μl of the application solution was taken and diluted with 95 μl 1.05×PBS to 100 μM, and then diluted in turn with PBS containing 5% DMSO to […]. PBS containing 5% DMSO was used as solvent control.
Hsp70 protein was diluted with 10 mmol/L sodium acetate buffer solution (pH 5.0) to 30 μg/ml, and coupled directly on a hydrophilic carboxylmethyl dextran matrix sensor chip M5 through normalized primary amine coupling reaction, RU=11209, and then the chip was balanced for 1-2 h with PBS Buffer at […].
At a flow rate of […], with PBS containing 5% DMSO as mobile phase, at 25° C., the compound was introduced in the sequence of 0.003, 0.01, 0.03, 0.1, 0.3, 1, 3 and 10 μM, with binding time of 90 seconds, and dissociation time of 120 seconds.
According to binding characteristics between the compounds and protein, the binding constant (equilibrium dissociation constant KD) between drugs and protein was calculated by selecting steady state model with the formula: Conc*Rmax/[conc+KD]+offset.

T1 sequence (P0DMV8 whole entry): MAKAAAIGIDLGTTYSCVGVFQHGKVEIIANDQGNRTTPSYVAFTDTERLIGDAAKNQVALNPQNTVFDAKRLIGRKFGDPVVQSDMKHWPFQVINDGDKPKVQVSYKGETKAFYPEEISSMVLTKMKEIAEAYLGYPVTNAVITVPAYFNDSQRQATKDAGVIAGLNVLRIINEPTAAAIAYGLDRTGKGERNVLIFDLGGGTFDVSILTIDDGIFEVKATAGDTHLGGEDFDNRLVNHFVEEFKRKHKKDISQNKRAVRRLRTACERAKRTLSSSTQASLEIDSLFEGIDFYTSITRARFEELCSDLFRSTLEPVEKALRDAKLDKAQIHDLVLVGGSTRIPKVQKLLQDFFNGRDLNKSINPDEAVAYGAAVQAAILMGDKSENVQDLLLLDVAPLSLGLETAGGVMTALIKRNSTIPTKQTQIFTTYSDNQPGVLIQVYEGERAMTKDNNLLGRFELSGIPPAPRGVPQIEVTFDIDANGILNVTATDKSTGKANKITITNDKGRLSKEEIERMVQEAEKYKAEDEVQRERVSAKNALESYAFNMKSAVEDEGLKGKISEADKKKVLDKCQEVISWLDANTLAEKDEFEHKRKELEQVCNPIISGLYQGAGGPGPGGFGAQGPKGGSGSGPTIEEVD

**Q.** Which results are given for `CSc1nccc(N2CCC(N(C)Cc3ccc(C#N)cc3)CC2)n1` [Example 36, N-methyl-N-(4-cyanobenzyl)-N-[1-(2-methylthiopyrimidin-4-yl)piperidin-4-yl]amine]?
**A.** Survival rate (HT-29; 0.016 μM): 97.5%; Survival rate (HT-29; 0.063 μM): 94.3%; Survival rate (HT-29; 0.25 μM): 90.9%; Survival rate (HT-29; 1 μM): 79.0%; Survival rate (HT-29; 4 μM): 27.1%; Survival rate (MIA-PaCa-2; 0.016 μM): 91.6%; Survival rate (MIA-PaCa-2; 0.063 μM): 92.2%; Survival rate (MIA-PaCa-2; 0.25 μM): 91.2%; Survival rate (MIA-PaCa-2; 1 μM): 66.0%; Survival rate (MIA-PaCa-2; 4 μM): 22.2%; Survival rate (BGC823; 0.016 μM): 96.6%; Survival rate (BGC823; 0.063 μM): 93.2%; Survival rate (BGC823; 0.25 μM): 89.1%; Survival rate (BGC823; 1 μM): 74.3%; Survival rate (BGC823; 4 μM): 27.7%; Survival rate (AsPC-1; 0.016 μM): 96.8%; Survival rate (AsPC-1; 0.063 μM): 99.4%; Survival rate (AsPC-1; 0.25 μM): 94.9%; Survival rate (AsPC-1; 1 μM): 90.0%; Survival rate (AsPC-1; 4 μM): 57.2%; Survival rate (N87; 0.016 μM): 92.9%; Survival rate (N87; 0.063 μM): 96.7%; Survival rate (N87; 0.25 μM): 97.2%; Survival rate (N87; 1 μM): 77.1%; Survival rate (N87; 4 μM): 40.3%; Survival rate (A549; 0.016 μM): 98.9%; Survival rate (A549; 0.063 μM): 97.6%; Survival rate (A549; 0.25 μM): 95.3%; Survival rate (A549; 1 μM): 75.8%; Survival rate (A549; 4 μM): 46.5%; KD compared with positive control drug VER-155008 (Hsp70): KD values equivalent to that of the positive control drug VER-155008; Kd (Hsp70; steady state model, 25° C., read-out: KD (binding constant between the compounds and Hsp70)): 246 nM
